What was measured:
osteocalcin (OC) [1] = assay: Circulating uncarboxylated osteocalcin (ucOC) / OC carboxylation in vitamin K intervention studies; assay type: in vivo, human
Description: (§1) Blood was drawn after an 8-12 h overnight fasting period to prepare serum and citrated plasma, which were subsampled and frozen at −80° C. until use. Renal allograft function was assessed as the 24 h urinary creatinine clearance (CrCl), i.e. the 24 h urinary creatinine excretion divided by the serum creatinine concentration. Vitamin K status was assessed from plasma dp-ucMGP concentrations as described elsewhere {Cranenburg EC et al. Thromb. Haemostas. 104 (2010) 811-822} and from ucOC using a commercial dual antibody ELISA test kit (Takara Shuzo Co. Ltd., Otsu, Shiga, Japan). An in-house control serum pool was run on all ELISA plates. The primary end-points of this study were death-censored graft failure and change in kidney function. Death-censored graft failure was defined as return to dialysis therapy or re-transplant. Change in kidney function was defined as estimated GFR (eGFR) at baseline subtracted by eGFR at the last follow-up visit, divided by time from baseline to follow-up and expressed in millilitres per minute per 1.73 m^2 per year. […] Calculating a slope instead of a change in eGFR therefore will underestimate a patient's true kidney function decrease. For patients who died with a functioning graft (n=78), eGFR at follow-up was defined as kidney function at the last visit to the outpatient clinic before death, and for patients with graft failure (n=42), eGFR at follow-up was defined as the eGFR at the last visit to the outpatient clinic before starting dialysis therapy or re-transplant. There was no loss to follow-up.
Recommended doses of vitamin K for treating transplant patients. […] On top of this, chronic kidney disease (CKD) patients are known to have much more pronounced vitamin K insufficiency than healthy subjects {Schlieper G et al. J. Am. Soc. Nephrol., 22 (2011) 387-395}. Therefore, the estimated range for optimal effect is dependent on the disease state and may be higher than estimated from literature data. […] This was shown in archived samples from a vitamin K1-intervention study initially described in 2003 {Braam L A et al. Am. J. Sports Med. 31 (2003) 889-895}. […] This was shown in archived samples from a vitamin K1-intervention study initially described in 2003 {Braam L A et al. Calcif. Tissue Int. 73 (2003) 21-26}. During the first 6 months of the study, circulating ucOC in the vitamin K-treated group decreased from 4.2 ng/mL to 0.8 ng/mL, whereas in the control samples a non-significant increase was observed from 4.4 ng/mL to 4.7 ng/mL. […] 109 (2007) 3279-3283}. […]

osteocalcin (OC) [2] = conditions: cited from earlier work
circulating OC and MGP = assay: Gla-protein carboxylation (circulating OC and MGP) after vitamin K supplementation; assay type: in vivo, human
Description: (§2) Recommended doses of vitamin K for treating transplant patients. […] On top of this, chronic kidney disease (CKD) patients are known to have much more pronounced vitamin K insufficiency than healthy subjects {Schlieper G et al. J. Am. Soc. Nephrol., 22 (2011) 387-395}. Therefore, the estimated range for optimal effect is dependent on the disease state and may be higher than estimated from literature data. […] This was shown in archived samples from a vitamin K1-intervention study initially described in 2003 {Braam L A et al. Am. J. Sports Med. 31 (2003) 889-895}. […] This was shown in archived samples from a vitamin K1-intervention study initially described in 2003 {Braam L A et al. Calcif. Tissue Int. 73 (2003) 21-26}. During the first 6 months of the study, circulating ucOC in the vitamin K-treated group decreased from 4.2 ng/mL to 0.8 ng/mL, whereas in the control samples a non-significant increase was observed from 4.4 ng/mL to 4.7 ng/mL. […] 109 (2007) 3279-3283}.
(§3) the optimal dose for Gla-protein carboxylation in subjects free from CKD lies between 5 and 2,000 μg/day, preferably between 50 and 1,000 μg/day, more preferably between 100 and 1,000 μg/day and most preferably between 200 and 500 μg/day for subjects with baseline levels in the normal range. […] The decreases of circulating dp-ucMGP and ucOC are shown in FIG. 10. • Lower doses were tested in a number of small studies with a significant effect at 200 μg/day and a half-maximum effect at 500 μg/day.
the optimal dose for Gla-protein carboxylation in subjects free from kidney disease lies between 5 and 3,000 μg/day, preferably between 50 and 2,000 μg/day, more preferably between 100 and 1,000 μg/day and most preferably between 200 and 500 μg/day for subjects with baseline levels in the normal range. […] Treatment should be guided by the circulating levels of dp-ucMGP, ucOC, or uncarboxylated species of any other suitable Gla-protein. • MK-n: The long-chain menaquinones are selected from the group menaquinone-7, menaquinone-8, menaquinone-9, and menaquinone-10. The long half-life times of the long-chain menaquinones make that the optimal dose for Gla-protein carboxylation is lower than for vitamin K1 {Schurgers L J et al. Biochim. Biophys. Acta 1570 (2002) 27-32}. […] A clear dose-dependent increase of MGP carboxylation was found, for instance, between 45 μg/day and 360 μg/day {Westenfeld R et al. Am. J. Kidney Dis. 59 (2012) 186-195}.

Matrix Gla-Protein (MGP) = assay: Circulating desphospho-uncarboxylated MGP (dp-ucMGP) / MGP carboxylation in vitamin K intervention studies; assay type: in vivo, human; conditions: for circulating dp-ucMGP at start: baseline
Description: as §1, §2, §3

[3] = in vivo; cited from earlier work

Structure (SMILES) | circulating ucOC at start (osteocalcin (OC) [1]; K1 1,000 μg/day group, baseline) | circulating ucOC after treatment (osteocalcin (OC) [1]; K1 1,000 μg/day, first 6 months of the study) | circulating ucOC level at start (osteocalcin (OC) [1]; K1 10,000 μg/day group, baseline of 2-year study) | circulating ucOC level after treatment (osteocalcin (OC) [1]; K1 10,000 μg/day, first 6 months of 2-year study, background = buffer values) | effect on the carboxylation degree of circulating OC (osteocalcin (OC) [2]; K1 140 μg/day) | OC and MGP carboxylation (circulating OC and MGP; K1 1,000 μg/day, healthy volunteers) | carboxylation of circulating OC and MGP (circulating OC and MGP; K1 10,000 μg/day, archived samples of vitamin K1-intervention study) | circulating dp-ucMGP after treatment (Matrix Gla-Protein (MGP); K1 1,000 μg/day (FIG. 8)) | circulating dp-ucMGP at start (Matrix Gla-Protein (MGP); K1 1,000 μg/day group) | circulating dp-ucMGP after treatment (Matrix Gla-Protein (MGP); K1 10,000 μg/day (FIG. 7)) | circulating dp-ucMGP at start (Matrix Gla-Protein (MGP); K1 10,000 μg/day group) | circulating half-life time [3] | carboxylation of circulating OC (osteocalcin (OC) [2]; MK-4 45,000 μg/day taken for 6 months) | dose with half-maximum effect on Gla-protein carboxylation (circulating OC and MGP; lower doses, small studies) | dose with significant effect on Gla-protein carboxylation (circulating OC and MGP; lower doses, small studies) | circulating dp-ucMGP change (Matrix Gla-Protein (MGP); MK-4 45,000 μg/day (FIG. 9))
CC1=C(C/C=C(\C)CCC[C@H](C)CCC[C@H](C)CCCC(C)C)C(=O)c2ccccc2C1=O [K1, phylloquinone] | 4.2 ng/mL | 0.8 ng/mL | 4.6 ng/mL | not different from background | less pronounced but statistically significant effect | substantial increase | more than 95% | 112 pM | 389 pM | 23 pM | 182 pM | around 1.5 h | – | – | – | –
CC(C)=CCC/C(C)=C/CC/C(C)=C/CC/C(C)=C/CC1=C(C)C(=O)c2ccccc2C1=O [MK-4, menaquinone-4] | – | – | – | – | – | – | – | – | – | – | – | 1 h | complete carboxylation | 500 µg/day | 200 µg/day | decrease

Reference: patent US20150141386A1, “USE OF VITAMIN K TO DECREASE ALLOGRAFT FAILURE AND PATIENT MORTALITY AFTER ORGAN TRANSPLANTATION” (VITAK B.V., priority 2012, published 2015)
